Patent publication US20250090510A1, “eIF4G1-eIF1 INHIBITORS AND USE THEREOF” (YEDA RESEARCH AND DEVELOPMENT CO. LTD., priority 2022, published 2025)

Columns and labels:
OVCAR8 = test: CellTiter-Glo luminescent cell viability assay; format: cell-based; conditions: ovarian cancer (OVCAR8), increasing concentrations, 48 h
Method: (§1) FIGS. 3A-F: i14G1-10 and i14G1-12 inhibit mRNA translation and sensitize cell survival of eIF4G1 and eIF1 depleted cells. (3A) In-vitro translation using rabbit reticulocyte lysate which was pre-incubated with different concentrations of i14G1-10 or i14G1-12 for 10 minutes followed by the addition of capped firefly luciferase mRNA. After 90 minutes at 30° C., the luminescence signal was measured and the IC50 was calculated. The data represents mean±SEM of 6 independent repeats. (3B) HEK293T cells were treated with DMSO (vehicle control), and sub-cytotoxic concentrations of i14G1-10 (20 μM) and i14G1-12 (10 μM) for 3h. Cell lysates were then subjected to sucrose gradient sedimentation to obtain polysome profiles. (3C) HEK293T cells were treated with the indicated concentrations of i14G1-10 and i14G-12 for 3 h, followed by the addition of puromycin (10 μg/ml) for 5 minutes, after which cells were lysed and analyzed by western blot using an anti-puromycin antibody and anti-GAPDH antibody that serves as a loading control. The graph represents the mean±SEM chemiluminescence signal intensity of puromycin labeling normalized to GAPDH of 3 independent experiments. The calculated IC-50 is shown. (3D) HEK293T cells were transfected with either control or eIF4G1 siRNA in the absence or presence of eIF4G1 expression plasmid. As the eIF4G1 siRNA pool is directed against the 3′UTR, which is absent from the eIF4G1 expression plasmid, the exogenous eIF4G1 is resistant to the siRNA. 48 h after transfection, cells were treated with the indicated concentrations of i14G1-10 and i14G-12 for 3 h, followed by a 5 minutes puromycin pulse as described in 3C. The graph represents the mean±SEM chemiluminescence signal intensity of puromycin labeling normalized to GAPDH of 3 independent experiments. The calculated IC-50 is shown. (3E) The graphs represent cell viability of the indicated cell lines in the presence of increasing concentrations of i14G1-10 and i14G1, analyzed by Luminescent Cell Viability Assay. (3F) Pie charts showing the cell cycle distribution of HEK293T cells treated with DMSO, i14G1-10 and i14G1-12.
(§2) The indicated cell lines in 96-well plates were treated with increasing concentrations of i14G1-10 and i14G1-12. After 48 h, cells were subjected to cell viability measurement using CellTiter-Glo Luminescent Assay (Cat no. G7571, Promega).
(§3) This was true in breast cancer (MCF7), lung cancer (A549), colorectal cancer (HCT116), ovarian cancer (OVCAR8) and in a bone cancer sarcoma cell line (U20S). To examine whether the growth defect is associated with cell cycle progression, control and drug treated cells were subjected to DNA staining by propidium iodide and then a flow cytometry analysis to determine their distribution in the sub-G1 (dead cells), G1, S and G2/M phases of the cell cycle.

A549 = test: CellTiter-Glo luminescent cell viability assay; format: cell-based; conditions: lung cancer (A549), increasing concentrations, 48 h
Method: as §1, §2, §3

[1] = Analysis of uptake (intracellular levels) by LC-MS; format: in vitro ADME; conditions: for concentration by LC-MS, Media: Media (amount applied)
Method: To determine the intracellular levels of i14G1-10 and i14G1-12, cells treated with these drugs for 3 h were extensively washed and then analyzed by LC-MS. Both compounds were detected within the cells, but the amount of i14G1-12 was substantially lower than the amount that was applied (Table 4).

eIF4G1 = biological target: T1, eIF4G1 (Homo sapiens, UniProt Q04637); test: Intrinsic fluorescence of His-eIF4G1; format: binding; conditions: 0-256 μM, 5 minutes, excitation 280 nm, emission 350 nm; read-out: IC50, loss of eIF4G1 intrinsic fluorescence
T1 construct: The pET-28-His-bdSumo-eIF4G1 (675-1129) was generated using eIF4G1 (675-1129) as insert and pET-28-14His-bdSumo as backbone; bdSUMO (N); made in house; host or cells: E. coli BL21
T1 sequence (Q04637 675-1129): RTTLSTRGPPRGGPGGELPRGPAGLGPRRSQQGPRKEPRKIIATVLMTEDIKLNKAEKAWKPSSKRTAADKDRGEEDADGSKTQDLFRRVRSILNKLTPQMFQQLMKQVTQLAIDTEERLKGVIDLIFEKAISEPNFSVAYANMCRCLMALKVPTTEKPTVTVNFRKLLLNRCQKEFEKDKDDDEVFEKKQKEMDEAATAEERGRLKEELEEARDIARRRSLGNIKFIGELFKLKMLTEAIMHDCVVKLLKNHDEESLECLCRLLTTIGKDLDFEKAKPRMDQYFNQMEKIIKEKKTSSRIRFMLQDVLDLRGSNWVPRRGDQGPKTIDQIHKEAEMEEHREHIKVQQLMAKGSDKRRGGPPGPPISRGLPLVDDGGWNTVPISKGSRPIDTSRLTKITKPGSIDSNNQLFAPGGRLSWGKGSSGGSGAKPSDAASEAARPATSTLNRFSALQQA
Text: FIGS. 1A-G: Identification and initial characterization of eIF1-eIF4G1 inhibitors using a high-throughput drug screen (HTS). (1A) A flowchart describing the steps of the recombinant eIF1-eIF4G1 split-RL HTS. (1B) Selection of drugs that inhibit leaky scanning. HEK293T cells were transfected with a short 5′UTR bearing GFP reporter gene described on the top, treated with the indicated HTS hits, and then analyzed by western blot with GFP antibody. US and DS denote upstream and downstream AUG initiation sites, respectively. (1C) A graph showing the change in the ratio of the upstream and downstream AUG following treatment with the indicated drugs. (1D) The chemical structure of the eIF1-eIF4G1 inhibitors, i14G1-10 and i14G1-12. (1E) His-tagged eIF4G1 and His-tagged eIF1 were expressed in BL21 bacteria and purified using nickel NTA beads. Purified His-tagged eIF4G1 and His-tagged eIF1 were incubated with the indicated doses of either i14G1-10 (0-256 μM) or i14G1-12 (0-256 μM) for 5 minutes, followed by fluorescence measurement. […] IC50 was calculated using Graphpad prism 9. […]
Intrinsic fluorescence of His-eIF1 and His-eIF4G1. […] After 5 minutes, fluorescence (280/350) was measured on Cytation 5 multi-mode reader (Biotek). The fluorescence intensity values corresponding to respective concentration in both i14G1-10 and i14G1-12 treatments were plotted and IC50 was calculated using GraphPad Prism 9.0. […]

[2] = cells treated 3 h, extensively washed

IC50 (eIF4G1)	SMILES	growth/survival (OVCAR8)	growth/survival (A549)	concentration by LC-MS, Media [1]	concentration by LC-MS, i14G1-10 treated cells [1, 2]	concentration by LC-MS, i14G1-12 treated cells [1, 2]
58.4 µM	Cn1ccnc1S/C(=C/C=C(C#N)C#N)c1ccc(Cl)cc1 [i14G1-12]	inhibited the growth/survival	inhibited the growth/survival	3.3 µg/mL	Not detected	
	O=C(/C=C/Sc1ccc(C(F)(F)F)cn1)c1ccccc1 [i14G1-10]	inhibited the growth/survival	inhibited the growth/survival	6.2 µg/mL	1.13 ± 0.04 µg/mL	Not detected
